From the supplement of paper PMC10307832 come the findings set out here.

Assay in all cases: relative viability (nuclei count vs DMSO), 5 days (fraction); higher = more cells survive
Compound in experiment [1]: CO[C@H]1C[C@@H]2CC[C@@H](C)[C@@](O)(O2)C(=O)C(=O)N2CCCC[C@H]2C(=O)O[C@H]([C@H](C)C[C@@H]2CC[C@@H](OCCO)[C@H](OC)C2)CC(=O)[C@H](C)/C=C(\C)[C@@H](O)[C@@H](OC)C(=O)[C@H](C)C[C@H](C)/C=C/C=C/C=C/1C [Everolimus] + COc1cccc2cc(-c3nc([C@H]4CC[C@H](C(=O)O)CC4)n4ncnc(N)c34)[nH]c12 [OSI-027] (partner 0.5 µM)
In short, it runs like this: (§1)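 Nuclei were stained with Hoechst during a one-step fixation (final 0.05% Triton X-100, 1% formaldehyde, 1 ug/ml Hoechst) carried out 5 days after dosing, then counted on 4× images. The cells, lung cancer lines in 1536-well plates, had been dosed by pin tool the day after seeding with one drug alone or a fixed anchor-drug dose plus five library-drug doses (not always all listed) in √10 steps. Relative viability is the nuclei count in treated wells divided by that in vehicle wells, and each value is the median of duplicate plates.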

Compound in experiment [2]: CO[C@H]1C[C@@H]2CC[C@@H](C)[C@@](O)(O2)C(=O)C(=O)N2CCCC[C@H]2C(=O)O[C@H]([C@H](C)C[C@@H]2CC[C@@H](OCCO)[C@H](OC)C2)CC(=O)[C@H](C)/C=C(\C)[C@@H](O)[C@@H](OC)C(=O)[C@H](C)C[C@H](C)/C=C/C=C/C=C/1C [Everolimus] + C[C@@H](Oc1cc(-c2cnn(C3CCNCC3)c2)cnc1N)c1c(Cl)ccc(F)c1Cl [Crizotinib] (partner 1 µM)
The method in brief: as §1

Compound in experiment [3]: CO[C@H]1C[C@@H]2CC[C@@H](C)[C@@](O)(O2)C(=O)C(=O)N2CCCC[C@H]2C(=O)O[C@H]([C@H](C)C[C@@H]2CC[C@@H](OCCO)[C@H](OC)C2)CC(=O)[C@H](C)/C=C(\C)[C@@H](O)[C@@H](OC)C(=O)[C@H](C)C[C@H](C)/C=C/C=C/C=C/1C [Everolimus] + C[C@]1(O)C[C@@H](c2nc(-c3ccc4ccc(-c5ccccc5)nc4c3)c3c(N)nccn32)C1 [Linsitinib] (partner 1 µM)
In short, it runs like this:
as §1

Compound in experiment [4]: CO[C@H]1C[C@@H]2CC[C@@H](C)[C@@](O)(O2)C(=O)C(=O)N2CCCC[C@H]2C(=O)O[C@H]([C@H](C)C[C@@H]2CC[C@@H](OCCO)[C@H](OC)C2)CC(=O)[C@H](C)/C=C(\C)[C@@H](O)[C@@H](OC)C(=O)[C@H](C)C[C@H](C)/C=C/C=C/C=C/1C [Everolimus] + Cc1cc(Nc2cc(N3CCN(C)CC3)nc(Sc3ccc(NC(=O)C4CC4)cc3)n2)n[nH]1 [Tozasertib] (partner 0.1 µM)
The method in brief: as §1

As for NCI-H441, the relative viability in experiment [1] (first compound 0.01 µM) was 0.557; in experiment [1] (first compound 0.03162 µM), 0.479; in experiment [1] (first compound 0.1 µM) it was 0.474; in experiment [1] (first compound 0.3162 µM), 0.585; in experiment [1] (first compound 1 µM), 0.358; in experiment [2] (first compound 0.01 µM), 0.881. Besides, the relative viability in experiment [2] (first compound 0.03162 µM) is 0.65; in experiment [2] (first compound 0.1 µM) it was 0.606; in experiment [2] (first compound 0.3162 µM), 0.766; in experiment [2] (first compound 1 µM) it was 0.723; in experiment [3] (first compound 0.01 µM), 0.504; in experiment [3] (first compound 0.03162 µM), 0.302. For the same cell line, the relative viability in experiment [3] (first compound 0.1 µM) turned out to be 0.289; in experiment [3] (first compound 0.3162 µM), 0.402; in experiment [3] (first compound 1 µM), 0.401; in experiment [4] (first compound 0.01 µM), 0.521; in experiment [4] (first compound 0.03162 µM), 0.643; in experiment [4] (first compound 0.1 µM), 0.636. The results for the relative viability in experiment [4] (first compound 0.3162 µM) and in experiment [4] (first compound 1 µM) were 0.555 and 0.54, respectively.
Regarding NCI-H1793, the relative viability in experiment [1] (first compound 0.01 µM) came out at 0.236; in experiment [1] (first compound 0.03162 µM), 0.189; in experiment [1] (first compound 0.1 µM), 0.185; in experiment [1] (first compound 0.3162 µM), 0.21; in experiment [1] (first compound 1 µM) it was 0.185; in experiment [3] (first compound 0.01 µM), 0.299. For the same cell line, the relative viability in experiment [3] (first compound 0.03162 µM) worked out at 0.188; in experiment [3] (first compound 0.1 µM) it was 0.333; in experiment [3] (first compound 0.3162 µM) it was 0.311; in experiment [3] (first compound 1 µM), 0.246; in experiment [4] (first compound 0.01 µM), 0.253; in experiment [4] (first compound 0.03162 µM), 0.197. The relative viability in experiment [4] (first compound 0.1 µM) is 0.234; in experiment [4] (first compound 0.3162 µM), 0.203; in experiment [4] (first compound 1 µM), 0.188.
Consider NCI-H23, for which the relative viability in experiment [1] (first compound 0.01 µM) turned out to be 0.382; in experiment [1] (first compound 0.03162 µM), 0.35; in experiment [1] (first compound 0.1 µM) it was 0.362; in experiment [1] (first compound 0.3162 µM) it was 0.41; in experiment [1] (first compound 1 µM), 0.378; in experiment [2] (first compound 0.01 µM), 0.486. Also, the relative viability came out at 0.33 in experiment [2] (first compound 0.03162 µM); 0.288 in experiment [2] (first compound 0.1 µM); 0.398 in experiment [2] (first compound 0.3162 µM); 0.359 in experiment [2] (first compound 1 µM); 0.288 in experiment [3] (first compound 0.01 µM); 0.3 in experiment [3] (first compound 0.03162 µM). The relative viability in experiment [3] (first compound 0.1 µM) came out at 0.244; in experiment [3] (first compound 0.3162 µM) it was 0.251; in experiment [3] (first compound 1 µM), 0.271; in experiment [4] (first compound 0.01 µM) it was 0.396; in experiment [4] (first compound 0.03162 µM), 0.295; in experiment [4] (first compound 0.1 µM), 0.299. Further, the figures for the relative viability in experiment [4] (first compound 0.3162 µM) and in experiment [4] (first compound 1 µM) were 0.358 and 0.217, respectively.
On to HARA, for which the relative viability is 0.277 in experiment [1] (first compound 0.01 µM); 0.345 in experiment [1] (first compound 0.03162 µM); 0.282 in experiment [1] (first compound 0.3162 µM); 0.336 in experiment [1] (first compound 1 µM); 1 in experiment [2] (first compound 0.01 µM); 1.12 in experiment [2] (first compound 0.03162 µM). The relative viability is 0.928 in experiment [2] (first compound 0.1 µM); 0.986 in experiment [2] (first compound 0.3162 µM); 0.952 in experiment [2] (first compound 1 µM); 0.839 in experiment [3] (first compound 0.01 µM); 0.8 in experiment [3] (first compound 0.03162 µM); 0.646 in experiment [3] (first compound 0.1 µM). Also, the relative viability in experiment [3] (first compound 0.3162 µM) was 0.674; in experiment [3] (first compound 1 µM) it was 0.713; in experiment [4] (first compound 0.01 µM) it was 0.226; in experiment [4] (first compound 0.03162 µM), 0.126; in experiment [4] (first compound 0.3162 µM) it was 0.116; in experiment [4] (first compound 1 µM), 0.293.
Take NCI-H1792: the relative viability amounted to 0.646 in experiment [1] (first compound 0.01 µM); 0.489 in experiment [1] (first compound 0.03162 µM); 0.427 in experiment [1] (first compound 0.1 µM); 0.421 in experiment [1] (first compound 0.3162 µM); 0.362 in experiment [1] (first compound 1 µM); 0.865 in experiment [2] (first compound 0.01 µM). Besides, the relative viability in experiment [2] (first compound 0.03162 µM) was 0.769; in experiment [2] (first compound 0.1 µM), 0.724; in experiment [2] (first compound 0.3162 µM), 0.583; in experiment [2] (first compound 1 µM), 0.644; in experiment [3] (first compound 0.01 µM), 0.449; in experiment [3] (first compound 0.03162 µM) it was 0.38. The relative viability in experiment [3] (first compound 0.1 µM) worked out at 0.202; in experiment [3] (first compound 0.3162 µM) it was 0.148; in experiment [3] (first compound 1 µM) it was 0.159.
On to NCI-H1703, for which the relative viability in experiment [2] (first compound 0.01 µM) came to 0.344; in experiment [2] (first compound 0.03162 µM) it was 0.316; in experiment [2] (first compound 0.1 µM), 0.276; in experiment [2] (first compound 0.3162 µM) it was 0.395; in experiment [2] (first compound 1 µM), 0.454; in experiment [3] (first compound 0.01 µM), 0.293. The relative viability was 0.281 in experiment [3] (first compound 0.03162 µM), 0.447 in experiment [3] (first compound 0.1 µM), 0.488 in experiment [3] (first compound 0.3162 µM) and 0.463 in experiment [3] (first compound 1 µM).
On to NCI-H1648, for which the relative viability in experiment [1] (first compound 0.01 µM) is 0.247; in experiment [1] (first compound 0.03162 µM) it was 0.252; in experiment [1] (first compound 0.1 µM), 0.268; in experiment [1] (first compound 0.3162 µM), 0.281; in experiment [1] (first compound 1 µM) it was 0.257; in experiment [4] (first compound 0.01 µM), 0.41. The relative viability in experiment [4] (first compound 0.03162 µM) worked out at 0.776; in experiment [4] (first compound 0.1 µM), 0.585; in experiment [4] (first compound 0.3162 µM), 0.549; in experiment [4] (first compound 1 µM), 0.388.
As to CAL-12T, the relative viability in experiment [1] (first compound 0.01 µM) is 0.221; in experiment [1] (first compound 0.03162 µM), 0.299; in experiment [1] (first compound 0.1 µM), 0.25; in experiment [1] (first compound 0.3162 µM) it was 0.309; in experiment [1] (first compound 1 µM), 0.296; in experiment [2] (first compound 0.01 µM) it was 0.432. The relative viability in experiment [2] (first compound 0.03162 µM) is 0.569; in experiment [2] (first compound 0.1 µM), 0.233; in experiment [2] (first compound 0.3162 µM), 0.401; in experiment [2] (first compound 1 µM), 0.265; in experiment [3] (first compound 0.01 µM), 0.452; in experiment [3] (first compound 0.03162 µM), 0.56. The relative viability was 0.447 in experiment [3] (first compound 0.1 µM); 0.616 in experiment [3] (first compound 0.3162 µM); 0.562 in experiment [3] (first compound 1 µM); 0.173 in experiment [4] (first compound 0.01 µM); 0.217 in experiment [4] (first compound 0.03162 µM); 0.212 in experiment [4] (first compound 0.1 µM). For the same cell line, the relative viability in experiment [4] (first compound 0.3162 µM) was found to be 0.167; in experiment [4] (first compound 1 µM), 0.182.
Turning to NCI-H727, the relative viability in experiment [1] (first compound 0.01 µM) amounted to 0.425; in experiment [1] (first compound 0.03162 µM), 0.392; in experiment [1] (first compound 0.1 µM) it was 0.467; in experiment [1] (first compound 0.3162 µM), 0.345; in experiment [1] (first compound 1 µM), 0.444; in experiment [2] (first compound 0.01 µM), 0.47. Further, the relative viability in experiment [2] (first compound 0.03162 µM) turned out to be 0.443; in experiment [2] (first compound 0.1 µM), 0.553; in experiment [2] (first compound 0.3162 µM) it was 0.49; in experiment [2] (first compound 1 µM), 0.496; in experiment [3] (first compound 0.01 µM) it was 0.207; in experiment [3] (first compound 0.03162 µM), 0.2. Moreover, the relative viability in experiment [3] (first compound 0.1 µM) was 0.203; in experiment [3] (first compound 0.3162 µM) it was 0.291; in experiment [3] (first compound 1 µM), 0.362; in experiment [4] (first compound 0.01 µM), 0.525; in experiment [4] (first compound 0.03162 µM), 0.562; in experiment [4] (first compound 0.1 µM) it was 0.505. Also, the relative viability in experiment [4] (first compound 0.3162 µM) turned out to be 0.713; in experiment [4] (first compound 1 µM), 0.53.
